# Experimental data reported in paper PMC8268581, “Identification of 3,4-Dihydro-2H,6H-pyrimido[1,2-c][1,3]benzothiazin-6-imine Derivatives as Novel Selective Inhibitors of Plasmodium falciparum Dihydroorotate Dehydrogenase” (International Journal of Molecular Sciences, 2021).
# Experiments:
# [1] = biological target: mammalian mitochondrial complexes I–III (Bos taurus, UniProt P00157+P03887+P17694+P42026); assay: NADH-cytochrome c reductase (complexes I–III) activity assay; format: biochemical; settings: bovine heart mitochondria, range tested 0.0007 to 22.7 µM; read-out: IC50 Mammalian Mitochondrial CI–III
# Method: Bovine heart mitochondria were prepared as previously described. The NADH-cytochrome c reductase (complexes I–III) and succinate-cytochrome c reductase (complexes II–III) activities were assayed in 384-well plates following an established protocol with small modifications. Complex I–III activity was assayed in a reaction mix containing 50 mM phosphate buffer pH 7.4, 2 mM KCN, 200 µM cytochrome c (cytochrome c from horse heart, Nacalai tesque), and 15 µg/mL mitochondria. Plates containing 1 µL serial dilutions of PfDHODH inhibitors were prepared and mixed with 38 µL of the reaction mix, as described above. The reaction was started by the addition of 5 µL of 2.6 mM NADH, and the assay was performed as described for PfDHODH, but at 550 nm and with 15 min of incubation. Complex II–III activity was assayed similarly to complex I–III activity but with 100 µM cytochrome c and 25 µg/mL mitochondria, and the reaction was started by 10 mM succinate. For both assays, DMSO and 5 µM ascochlorin were used as negative and positive controls, respectively. Assays were performed in triplicate.
# HsDHODH = biological target: T1, HsDHODH (Homo sapiens, UniProt Q02127); assay: HsDHODH counter-assay; format: biochemical; settings: purified recombinant HsDHODH, tested at 4.5 µM; read-out: IC50 DHODH Hs
# T1 construct: made in house
# Method: Selected hit compounds from PfDHODH screening were tested for potential inhibition against HsDHODH at 4.5 µM. The HsDHODH used in this study was purified as previously reported. The HsDHODH assay was performed similarly to that for PfDHODH, but in an assay mix consisting of 50 mM Tris-HCl pH 8.0, 0.1% (v/v) Triton X-100, 2 mM potassium cyanide (KCN, Wako), 60 µM dUQ, and 120 µM DCIP, with the reaction started by the addition of 200 µM L-DHO (final concentration) in triplicate. For this assay, DMSO was used as a negative control and 10 µM of lapachol was used as a positive control (100% inhibition). The relative inhibition was calculated as described above.
# [2] = test system: P. falciparum 3D7 strain expressing the cytosolic yeast DHODH (3D7-yDHODH); assay: Confirmation assay against transgenic parasite 3D7-yDHODH; format: cell-based, Plasmodium falciparum; settings: for activity at 10 µM: 72 h, relative parasite growth at 10 µM compound, read-out: Growth at 10 µM (%) Pf3D7-yDHODH; for susceptibility of Pf3D7-yDHODH parasite (in words): relative parasite growth at 10 µM, compared with wild-type 3D7
# Method: Synchronized ring-stage parasites at 0.3% parasitemia and 2% hematocrit were cultured in a 384-well plate at 25 µL with test compounds at a final concentration in the range of 0.0003 to 10 µM with a fixed DMSO concentration of 0.4% (v/v). Parasite growth was monitored by the diaphorase-coupled P. falciparum lactate dehydrogenase (PfLDH) assay, as previously described. After 72 h, 70 µL of the assay solution (150 mM lithium L-lactate (Wako), 0.05 mg/mL 3-acetylpyridine adenine dinucleotide (Oriental Yeast Co., Ltd., Tokyo, Japan), 0.2 mg/mL nitro blue tetrazolium (Wako), 1 unit/mL diaphorase, and 100 mM Tris-HCl pH 8.0) were mixed with the parasite culture and incubated at room temperature for 40 min, and the generated nitro blue formazan was measured at 650 nm using a SpectraMax®® Paradigm®® Multi-Mode Microplate Reader. […] The EC50 was calculated using GraphPad Prism 8.0 software from the mean of quadruplets values.
# The P. falciparum 3D7 strain expressing the cytosolic yeast DHODH (3D7-yDHODH) was prepared as follows. pHHyDHODH-GFP plasmid (Kerafast, Boston, MA, USA) was transfected to the P. falciparum 3D7 strain following the established transfection method. Briefly, 50 µg of plasmid dissolved in cytomix solution (120 mM KCl, 0.15 mM CaCl2, 10 mM K2HPO4/KH2PO4 pH 7.6, 25 mM HEPES-KOH pH 7.6, 2 mM ethylene glycol-bis(β-aminoethyl ether)-N,N,N′,N′-tetraacetic acid (EGTA, Dojindo), and 5 mM magnesium chloride (Wako)) was transfected into the red blood cells by the Gene Pulser Xcell (Bio-Rad). Percoll–sorbitol synchronized parasites were mixed with red blood cells containing plasmid and maintained under 5 nM WR99210 for 2 weeks. The growth of resistant parasites against DSM265 and atovaquone, as PfDHODH and complex III inhibitors respectively, was confirmed by PfLDH/diaphorase assay. A total of 10 µM PfDHODH inhibitors were tested against wild-type 3D7 and 3D7-yDHODH following the method described above in triplicate. The significance of difference between the inhibition of the two parasite strains was evaluated by Student’s t-test (Figure S4).
# PfDHODH = biological target: T2, PfDHODH (Plasmodium falciparum, UniProt Q08210); assay: PfDHODH inhibition assay (DCIP end-point, 384-well); format: biochemical; settings: recombinant tag-free PfDHODH, 20 min, serial dilutions 0.0007-22.7 µM; read-out: IC50 DHODH Pf
# T2 construct: encoding amino acid residues 158 to 569 fused to a His6-SUMO tag in its N-terminus; His6-SUMO (N, cleaved yes); made in house; host or cells: E. coli BL21 Star (DE3), pETSUMO/PfDHODH
# Method: The screening of 40,400 compounds was conducted in 384-well plates by adapting the end-point assay reported before. First, 1 µL of 200 µM compound was transferred into 384-well plates using a Benchtop Multi-Pipetter EDR-384SR (Biotech Co., Ltd., Tokyo, Japan). […] Next, 38 µL of assay mix (100 mM HEPES-NaOH pH 7.5, 5% (v/v) glycerol, 150 mM NaCl, 0.05% (v/v) Triton X-100, 15 µM decylubiquinone (dUQ, Sigma), 120 µM 2,6-dichlorophenolindophenol (DCIP, Sigma), and 20 nM PfDHODH) were dispensed into all wells and mixed at 600 rpm for 1 min by a MixMate®® (Eppendorf). The reaction was started by the addition of 5 µL of 1.8 mM L-DHO (Sigma) as the substrate and mixed as described above for 20 s. The absorbance at 600 nm was recorded using a SpectraMax®® Paradigm®® Multi-Mode Microplate Reader (Molecular Devices) before (t0) and after 20 min (t20) incubation at room temperature. The readings at t0 were subtracted from t20, and PfDHODH inhibition was calculated as the inhibition relative to the negative and positive controls in a single-point assay. Hits were defined as compounds inhibiting more than 50% of PfDHODH activity at 4.5 µM. The quality of the screening system was evaluated by calculating statistical parameters: Z′-factor, S/N, S/B, SW, and CV, as previously reported. The IC50 values of the hit compounds were determined using the same assay system containing serial dilutions of each compound in triplicates (22.7, 6.8, 2.27, 0.68, 0.227, 0.068, 0.023, 0.007, 0.002, 0.0007 µM) using GraphPad Prism 8.0 software (GraphPad Software Inc., San Diego, CA, USA).
# T2 sequence (Q08210 158-569): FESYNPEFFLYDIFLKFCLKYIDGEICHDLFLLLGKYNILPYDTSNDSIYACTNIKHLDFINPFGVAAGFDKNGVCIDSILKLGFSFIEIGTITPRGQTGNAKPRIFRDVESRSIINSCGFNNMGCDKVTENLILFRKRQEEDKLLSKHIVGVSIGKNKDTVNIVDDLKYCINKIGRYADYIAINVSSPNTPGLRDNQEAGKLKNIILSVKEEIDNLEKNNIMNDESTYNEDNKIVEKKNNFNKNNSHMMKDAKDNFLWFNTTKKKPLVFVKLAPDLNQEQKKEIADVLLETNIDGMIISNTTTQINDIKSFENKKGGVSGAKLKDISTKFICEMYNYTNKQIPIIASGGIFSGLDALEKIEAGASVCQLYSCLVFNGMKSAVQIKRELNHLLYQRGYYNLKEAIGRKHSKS
# T1 sequence (Q02127 whole entry): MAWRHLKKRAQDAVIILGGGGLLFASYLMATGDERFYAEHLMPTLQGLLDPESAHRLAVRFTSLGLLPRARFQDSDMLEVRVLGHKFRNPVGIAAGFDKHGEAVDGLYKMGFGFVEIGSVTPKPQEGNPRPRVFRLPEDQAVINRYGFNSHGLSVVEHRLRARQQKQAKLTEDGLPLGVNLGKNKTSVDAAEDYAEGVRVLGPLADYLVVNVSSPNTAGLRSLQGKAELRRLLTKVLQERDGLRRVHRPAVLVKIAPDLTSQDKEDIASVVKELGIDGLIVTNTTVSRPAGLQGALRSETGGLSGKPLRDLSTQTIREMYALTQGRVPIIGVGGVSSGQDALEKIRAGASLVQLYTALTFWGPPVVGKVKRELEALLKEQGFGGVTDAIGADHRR
Compound,IC50 [1],IC50 (HsDHODH),activity at 10 µM [2],IC50 (PfDHODH),susceptibility of Pf3D7-yDHODH parasite (in words) [2]
N=C1Sc2cc(-c3ccc(OC(F)(F)F)cc3)ccc2C2=NCCCN12 [Compound 18],> 22.7 µM,> 4.5 µM,2.54 ± 0.42%,1430 ± 60 nM,–
N=C1Sc2cc(-c3ccc(C(=O)c4ccccc4)cc3)ccc2C2=NCCCN12 [Compound 19],> 22.7 µM,> 4.5 µM,68.6 ± 0.43%,1070 ± 50 nM,reduced susceptibility
C#CCOCc1ccc(C(=O)c2ccc(-c3ccc4c(c3)SC(=N)N3CCCN=C43)cc2)cc1 [Compound 20],> 22.7 µM,> 4.5 µM,0.45 ± 0.74%,1210 ± 60 nM,–
N=C1Sc2cc(-c3cccc([N+](=O)[O-])c3)ccc2C2=NCCCN12 [Compound 21],> 22.7 µM,> 4.5 µM,103 ± 0.67%,3680 ± 310 nM,reduced susceptibility
CC(C)Oc1cccc(-c2ccc3c(c2)SC(=N)N2CCCN=C32)c1 [Compound 22],> 22.7 µM,> 4.5 µM,-0.06 ± 0.24%,1560 ± 50 nM,–
CCc1cccc(-c2ccc3c(c2)SC(=N)N2CCCN=C32)c1 [Compound 25],> 22.7 µM,> 4.5 µM,0.01 ± 0.15%,1520 ± 80 nM,–
N=C1Sc2cc(-c3ccccc3-c3ccccc3)ccc2C2=NCCCN12 [Compound 27],> 22.7 µM,> 4.5 µM,0.25 ± 0.04%,3300 ± 100 nM,–
c1ccc(-c2ccc3c(c2)SN2CCCN=C32)cc1 [Compound 30],> 22.7 µM,> 4.5 µM,63.6 ± 5.87%,4260 ± 120 nM,reduced susceptibility
c1ccc2c(-c3ccc4c(c3)SN3CCCN=C43)cccc2c1 [Compound 31],> 22.7 µM,> 4.5 µM,0%,1100 ± 80 nM,–
c1cc2c(cc1-c1ccc3c(c1)SN1CCCN=C31)OCO2 [Compound 32],> 22.7 µM,> 4.5 µM,0.11 ± 0.03%,1290 ± 90 nM,–
c1ccc(-c2ccc3c(c2)C2=NCCCN2S3)cc1 [Compound 36],> 22.7 µM,> 4.5 µM,32.5 ± 10.1%,1510 ± 40 nM,–
COC(=O)c1ccc(-c2ccc3c(c2)SN2CCCN=C32)cc1 [Compound 37],> 22.7 µM,> 4.5 µM,-0.18 ± 0.05%,1150 ± 70 nM,–
O=[N+]([O-])c1ccc(-c2ccc3c(c2)SN2CCCN=C32)cc1 [Compound 39],> 22.7 µM,> 4.5 µM,1.48 ± 0.14%,1300 ± 40 nM,–
COC(=O)c1cccc(-c2ccc3c(c2)SN2CCCN=C32)c1 [Compound 40],> 22.7 µM,> 4.5 µM,-0.09 ± 0.08%,1430 ± 20 nM,–
